Measurements taken from patent US20080262029A1, “Acid and Base Salt Forms of Gaboxadol” (H. Lundbeck A/S, priority 2005, published 2008).
Where a name gives a salt, the structure may show the parent alone.

Assays:
[1] = Differential scanning calorimetry (DSC) of gaboxadol salt forms; assay type: physicochemical; conditions: for DSC exothermic decomposition onset / DSC exothermic transition onset: 25 to 300° C., 10° C./min, dry nitrogen
Procedure: (§1) The X-ray powder diffraction spectra was generated on a Philips Analytical X'Pert PRO X-ray Diffraction System with PW3040/60 console. A PW3373/00 ceramic Cu LEF X-ray tube K-Alpha radiation was used as the source. The X-ray powder diffraction spectrum was recorded at ambient temperature (CuKα radiation, 3° to 40° (2θ), steps of 0.014°, 0.2 sec per step), giving the results herein. Solid-state carbon-13 NMR spectrum was obtained on a Bruker DSX 400WB NMR system using a Bruker 4 mm double resonance CPMAS probe. Carbon-13 NMR spectrum utilized proton/carbon-13 cross-polarization magic-angle spinning with variable-amplitude cross polarization. The sample was spun at 15.0 kHz, and a total of 2048 scans were collected with a recycle delay of 20 seconds. A line broadening of 40 Hz was applied to the spectrum before FT was performed. Chemical shifts are reported on the TMS scale using the carbonyl carbon of glycine (176.03 p.p.m.) as a secondary reference. DSC traces were recorded between 25 and 300° C. (10° C./min), under a flow of dry nitrogen. TGA was carried out between 25 and 300° C. (10° C./min), under a flow of dry nitrogen.

[2] = Thermogravimetric analysis (TGA) of gaboxadol salt forms; assay type: physicochemical; conditions: for TGA decomposition onset / TGA weight loss before decomposition (in words): 25 to 300° C., 10° C./min, dry nitrogen
Procedure: as §1

[3] = molecular target: GABAA receptors comprising α4 and δ subunits (Homo sapiens, UniProt O14764+P48169); conditions: Brown et al, British J. Pharmacol., 136, 965-74 (2002); cited from earlier work
Chain of GABAA receptors comprising α4 and δ subunits (P48169 36-554): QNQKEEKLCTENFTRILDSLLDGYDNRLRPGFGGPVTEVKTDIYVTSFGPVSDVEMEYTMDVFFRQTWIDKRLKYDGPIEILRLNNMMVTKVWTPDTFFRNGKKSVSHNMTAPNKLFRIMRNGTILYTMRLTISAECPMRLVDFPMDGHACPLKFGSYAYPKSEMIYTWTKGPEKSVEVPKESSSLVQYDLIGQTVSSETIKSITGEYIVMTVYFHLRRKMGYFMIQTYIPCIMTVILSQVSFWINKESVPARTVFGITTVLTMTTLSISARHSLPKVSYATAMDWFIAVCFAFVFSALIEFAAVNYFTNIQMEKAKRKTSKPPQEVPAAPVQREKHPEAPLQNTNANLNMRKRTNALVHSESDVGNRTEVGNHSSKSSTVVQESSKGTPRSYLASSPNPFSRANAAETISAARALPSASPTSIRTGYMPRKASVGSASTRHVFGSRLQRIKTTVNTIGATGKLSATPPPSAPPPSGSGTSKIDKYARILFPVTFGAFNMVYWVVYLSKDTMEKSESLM
Chain of GABAA receptors comprising α4 and δ subunits (O14764 25-452): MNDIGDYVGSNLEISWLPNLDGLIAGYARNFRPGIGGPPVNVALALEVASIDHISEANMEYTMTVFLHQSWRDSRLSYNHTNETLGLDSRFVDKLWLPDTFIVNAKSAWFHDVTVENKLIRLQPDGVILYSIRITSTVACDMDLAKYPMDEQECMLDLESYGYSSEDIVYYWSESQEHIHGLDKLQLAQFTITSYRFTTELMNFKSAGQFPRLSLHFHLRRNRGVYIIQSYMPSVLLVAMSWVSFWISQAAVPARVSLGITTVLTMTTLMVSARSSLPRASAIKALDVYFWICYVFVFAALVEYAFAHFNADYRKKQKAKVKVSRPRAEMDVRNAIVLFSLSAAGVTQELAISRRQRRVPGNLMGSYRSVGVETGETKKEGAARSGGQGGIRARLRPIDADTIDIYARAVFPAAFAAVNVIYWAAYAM
Chain of GABAA receptors comprising α4 and δ subunits (P28472 26-473 partner): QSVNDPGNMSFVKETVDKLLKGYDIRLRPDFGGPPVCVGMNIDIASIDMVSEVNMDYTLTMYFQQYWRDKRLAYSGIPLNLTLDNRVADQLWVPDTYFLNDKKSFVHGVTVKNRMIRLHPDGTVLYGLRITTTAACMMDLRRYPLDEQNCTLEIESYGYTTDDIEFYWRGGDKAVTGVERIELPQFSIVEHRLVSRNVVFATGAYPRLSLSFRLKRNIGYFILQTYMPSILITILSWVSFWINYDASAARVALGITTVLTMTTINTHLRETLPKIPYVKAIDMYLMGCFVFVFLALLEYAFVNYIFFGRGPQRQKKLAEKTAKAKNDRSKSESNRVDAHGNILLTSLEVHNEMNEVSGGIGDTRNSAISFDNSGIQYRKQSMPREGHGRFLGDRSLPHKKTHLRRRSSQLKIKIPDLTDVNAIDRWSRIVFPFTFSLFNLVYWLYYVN

| Compound | DSC observation of exothermic events (in words) ([1]; solid analysed by DSC) | TGA decomposition onset [2] | DSC exothermic decomposition onset [1] | further results |
| --- | --- | --- | --- | --- |
| Oc1noc2c1CCNC2 [Calcium Salt, gaboxadol calcium] | exhibited exothermic decomposition |  |  |  |
| C[N+](C)(C)CCO.[O-]c1noc2c1CCNC2 [Choline Salt, gaboxadol choline] | exhibited exothermic transitions |  |  |  |
| Oc1noc2c1CCNC2.c1ccc(CNCCNCc2ccccc2)cc1 [N,N-Dibenzyl-ethylenediamine Salt, gaboxadol N,N-dibenzyl(ethylene)diamine] | exhibited an exothermic transition |  |  |  |
| Oc1noc2c1CCNC2 [Potassium Salt, gaboxadol potassium] | exhibited exothermic transitions |  |  |  |
| Oc1noc2c1CCNC2 [Sodium Salt, gaboxadol sodium] | exhibited exothermic transitions |  |  |  |
| O=C(O)CC(O)(CC(=O)O)C(=O)O.Oc1noc2c1CCNC2 [gaboxadol citrate] |  | about 190 °C | 175 °C | TGA weight loss ([2]; from 32° C. to 103° C.): 8.9 wt % |
| Oc1noc2c1CCNC2 [gaboxadol, 4,5,6,7-tetrahydroisoxazolo[5,4-c]pyridin-3-ol] |  |  |  | Agonist potency (in words) [3]: particularly potent agonist |
| gaboxadol L-lysine [L-Lysine Salt] | exhibited exothermic transitions |  |  |  |
| gaboxadol acetate [Acetate Salt] |  | 205 °C |  | TGA weight loss ([2]; from 40° C. to 115° C.): 5.0 wt %; DSC exothermic transition onset [1]: 204 °C |
| gaboxadol bis-sulfate [Sulfate Salt from ethanol and acetonitrile (Type III)] |  | about 220 °C | 207 °C | TGA weight loss, step 2 ([2]; from 118° C. to 154° C.): 0.8 wt %; TGA weight loss, step 1 ([2]; from about 50° C. to 118° C.): 1.4 wt % |
| gaboxadol bis-sulfate [Sulfate Salt from trifluorotoluene (Type I)] |  | about 220 °C | 220 °C | TGA weight loss, step 2 ([2]; from 87° C. to 180° C.): 4.3 wt %; TGA weight loss, step 1 ([2]; from about 50° C. to 87° C.): 1.2 wt % |
| gaboxadol citrate [Citrate Salt from isopropyl acetate] |  | about 190 °C |  | TGA weight loss ([2]; from 31° C. to 109° C.): 18.5 wt %; DSC exothermic transition onset [1]: 175 °C |
| gaboxadol fumarate [Fumarate Salt] |  | about 190 °C | 215 °C | TGA weight loss before decomposition (in words) [2]: no weight loss |
| gaboxadol magnesium [Magnesium Salt] |  |  |  | Temperature below which DSC indicated no exothermic events ([1]; solid analysed by DSC): approximately 345 °C |
| gaboxadol phosphate [Phosphate Salt] |  | 214 °C | about 200 °C | TGA weight loss before decomposition (in words) [2]: no weight loss |
| gaboxadol succinate [Succinate Salt] |  | 193 °C | 198 °C | TGA weight loss before decomposition (in words) [2]: no weight loss |
| gaboxadol sulfate [Sulfate Salt (1 mol equiv.)] |  | 196 °C | about 190 °C | TGA weight loss ([2]; from 50° C. to 176° C.): 7.1 wt % |
| gaboxadol tartrate [L-Tartrate Salt] |  | about 189 °C | 199 °C | TGA weight loss ([2]; from 31° C. to 177° C.): 0.6 wt % |
